According to patent US8680159B2, “Bradykinin 1 receptor modulating compounds” (Gruenenthal GmbH, priority 2010, dated 2014):

Key:
[1] = molecular target: T1, human B1R receptor (CHO K1 cells stably transfected with the human B1R gene) (Homo sapiens, UniProt P46663); experiment: Functional study on the bradykinin receptor 1 (B1R), Ca2+ fluorescence (Fluo-4) FLIPR/Novostar assay, hB1R cells; format: cell-based; conditions: CHO-K1, read-out: % inhibition (human B1R) at 10 μM
T1 construct: expressed in transfected cells; host or cells: CHO K1 cells (Chinese hamster ovary), stably transfected
T1 sequence (P46663 1-353): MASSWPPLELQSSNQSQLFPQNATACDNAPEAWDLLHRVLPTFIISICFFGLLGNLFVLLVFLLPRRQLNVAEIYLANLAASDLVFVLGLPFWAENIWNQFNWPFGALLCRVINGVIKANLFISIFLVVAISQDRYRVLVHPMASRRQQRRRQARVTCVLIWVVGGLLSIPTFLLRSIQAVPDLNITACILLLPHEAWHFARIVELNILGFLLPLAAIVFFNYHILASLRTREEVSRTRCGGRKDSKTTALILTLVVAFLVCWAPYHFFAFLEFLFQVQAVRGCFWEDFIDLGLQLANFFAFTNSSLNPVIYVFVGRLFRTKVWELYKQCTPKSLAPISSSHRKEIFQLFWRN
Method in brief: (§1)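 Test compounds (10 μM) were added first and the Ca2+ rise was scored as % activation against Lys-Des-Arg9-bradykinin (≥50 nM, human) or Des-Arg9-bradykinin (≥1 μM, rat). After 6-20 min, the matching agonist was given at its EC80, and % inhibition relative to maximal achievable inhibition was calculated.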

[2] = molecular target: T2, B1R receptor of the rat (CHO K1 cells stably transfected with the B1R gene of the rat) (Rattus norvegicus, UniProt P97583); experiment: Functional study on the bradykinin receptor 1 (B1R), Ca2+ fluorescence (Fluo-4) FLIPR/Novostar assay, rB1R cells; format: cell-based; conditions: CHO-K1, 10 μM, read-out: % inhibition (rat B1R) at 10 μM
T2 construct: expressed in transfected cells; host or cells: CHO K1 cells (Chinese hamster ovary), stably transfected
T2 sequence (P97583 1-337): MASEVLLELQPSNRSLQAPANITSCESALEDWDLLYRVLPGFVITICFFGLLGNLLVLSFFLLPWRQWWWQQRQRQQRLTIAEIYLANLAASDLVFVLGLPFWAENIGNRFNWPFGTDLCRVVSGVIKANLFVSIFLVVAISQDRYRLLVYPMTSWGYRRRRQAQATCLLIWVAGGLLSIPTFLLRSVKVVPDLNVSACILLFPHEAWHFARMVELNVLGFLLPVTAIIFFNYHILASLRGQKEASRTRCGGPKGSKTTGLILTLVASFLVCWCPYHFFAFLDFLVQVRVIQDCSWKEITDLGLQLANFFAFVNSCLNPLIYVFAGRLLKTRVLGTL
Method in brief: as §1

SMILES	inhibition at 10 µM [1]	inhibition at 10 µM [2]
CN(C(=O)c1ccc2c(c1)[C@H](NC(=O)c1ccccc1Cl)CC2)C1CCC(N2CCc3cnccc3C2)CC1 (stereo partly drawn) [Example H-99, (3R)-3-[(2-Chloro-benzoyl)amino]-N-methyl-N-[4-(1,2,3,4-tetrahydro-[2,6]naphthyridin-2-yl)-cyclohexyl]-2,3-dihydro-1H-indene-5-carboxylic acid amide]	81%	104%
CN(C)c1cc(N2CCC(N(C)C(=O)c3ccc4c(c3)[C@H](NC(=O)c3ccccc3Cl)CC4)CC2)ccn1 [Example H-100, (3R)-3-[(2-Chloro-benzoyl)amino]-N-[1-(2-dimethylamino-pyridin-4-yl)-piperidin-4-yl]-N-methyl-2,3-dihydro-1H-indene-5-carboxylic acid amide]	100%	103%
COc1ccc(N2CCC(N(C)C(=O)c3ccc4c(c3)[C@H](NC(=O)c3ccccc3Cl)CC4)CC2)cn1 [Example H-101, (3R)-3-[(2-Chloro-benzoyl)amino]-N-[1-(6-methoxy-pyridin-3-yl)-piperidin-4-yl]-N-methyl-2,3-dihydro-1H-indene-5-carboxylic acid amide]	13%	95%
CN(C)c1ncc2c(n1)CCN(C1CCC(N(C)C(=O)c3ccc4c(c3)[C@H](NC(=O)c3ccccc3Cl)CC4)CC1)C2 (stereo partly drawn) [Example H-102, (3R)-3-[(2-Chloro-benzoyl)amino]-N-[4-(2-dimethylamino-5,6,7,8-tetrahydro-pyrido[4,3-d]pyrimidin-6-yl)-cyclohexyl]-N-methyl-2,3-dihydro-1H-indene-5-carboxylic acid amide]	68%	103%
CN1CCN([C@@H]2CCC[C@H](N(C)C(=O)c3ccc4c(c3)[C@H](NC(=O)c3ccccc3Cl)CC4)C2)CC1 [Example H-103, (3R)-3-[(2-Chloro-benzoyl)amino]-N-methyl-N-[(1S,3R)-3-(4-methyl-piperazin-1-yl)-cyclohexyl]-2,3-dihydro-1H-indene-5-carboxylic acid amide]	27%	72%
CN1CCN([C@@H]2CCC[C@H](N(C)C(=O)c3ccc4c(c3)[C@H](NS(=O)(=O)c3ccccc3Cl)CC4)C2)CC1 [Example H-104, (3R)-3-[[(2-Chlorophenyl)sulfonyl]amino]-N-methyl-N-[(1S,3R)-3-(4-methyl-piperazin-1-yl)-cyclohexyl]-2,3-dihydro-1H-indene-5-carboxylic acid amide]	75%	37%
CN(C(=O)c1ccc2c(c1)C(N(C(=O)c1ccccc1Cl)C(C)(C)C)CC2)C1CCN(c2ccncc2)CC1 (stereo not drawn) [Example H-110, 3-[tert-Butyl-(2-chloro-benzoyl)-amino]-N-methyl-N-(1-pyridin-4-yl-piperidin-4-yl)-2,3-dihydro-1H-indene-5-carboxylic acid amide]	23%	26%
CN1CCN([C@@H]2CCC[C@H](N(C)C(=O)c3ccc4c(c3)CC[C@H]4N3Cc4cccc(Cl)c4C3=O)C2)CC1 [Example H-111, (1R)-1-(4-Chloro-3-oxo-1,2-dihydro-isoindol-2-yl)-N-methyl-N-[(1S,3R)-3-(4-methyl-piperazin-1-yl)-cyclohexyl]-2,3-dihydro-1H-indene-5-carboxylic acid amide]	65%	10%
COc1cc(N2CCC(N(C)C(=O)c3ccc4c(c3)[C@H](NC(=O)c3ccccc3Cl)CC4)CC2)ccn1 [Example H-112, (3R)-3-[(2-Chloro-benzoyl)amino]-N-[1-(2-methoxy-pyridin-4-yl)-piperidin-4-yl]-N-methyl-2,3-dihydro-1H-indene-5-carboxylic acid amide]	99%	99%
CN(C)c1ccc(N2CCC(N(C)C(=O)c3ccc4c(c3)[C@H](NC(=O)c3ccccc3Cl)CC4)CC2)cn1 [Example H-113, (3R)-3-[(2-Chloro-benzoyl)amino]-N-[1-(6-dimethylamino-pyridin-3-yl)-piperidin-4-yl]-N-methyl-2,3-dihydro-1H-indene-5-carboxylic acid amide]	98%	100%

Next, values leading:

inhibition at 10 µM [1]	inhibition at 10 µM [2]	SMILES
38%	96%	CN(C(=O)c1ccc2c(c1)[C@H](NC(=O)c1ccccc1Cl)CC2)C1CCC(Oc2ccncc2)CC1 (stereo partly drawn) [Example H-114, (3R)-3-[(2-Chloro-benzoyl)amino]-N-methyl-N-(4-pyridin-4-yloxy-cyclohexyl)-2,3-dihydro-1H-indene-5-carboxylic acid amide]
13%	63%	CN(C(=O)c1ccc2c(c1)[C@H](NC(=O)c1ccccc1Cl)CC2)C1CCCN(c2ccncc2)C1 (stereo partly drawn) [Example H-115, (3R)-3-[(2-Chloro-benzoyl)amino]-N-methyl-N-(1-pyridin-4-yl-piperidin-3-yl)-2,3-dihydro-1H-indene-5-carboxylic acid amide]
99%	103%	CN(C(=O)c1ccc2c(c1)[C@H](NC(=O)c1ccccc1Cl)CC2)C1CCCN(c2ccncc2)CC1 (stereo partly drawn) [Example H-116, (3R)-3-[(2-Chloro-benzoyl)amino]-N-methyl-N-(1-pyridin-4-yl-azepan-4-yl)-2,3-dihydro-1H-indene-5-carboxylic acid amide]
99%	105%	CN(C(=O)c1ccc2c(c1)[C@H](NC(=O)c1ccccc1Cl)CC2)C1CCN(c2ccncc2F)CC1 [Example H-117, (3R)-3-[(2-Chloro-benzoyl)amino]-N-[1-(3-fluoro-pyridin-4-yl)-piperidin-4-yl]-N-methyl-2,3-dihydro-1H-indene-5-carboxylic acid amide]
100%	104%	CN(C)c1nccc(N2CCC(N(C)C(=O)c3ccc4c(c3)[C@H](NC(=O)c3ccccc3Cl)CC4)CC2)n1 [Example H-118, (3R)-3-[(2-Chloro-benzoyl)amino]-N-[1-(2-dimethylamino-pyrimidin-4-yl)-piperidin-4-yl]-N-methyl-2,3-dihydro-1H-indene-5-carboxylic acid amide]
91%	52%	CC(C)CC(=O)N(C(C)C)[C@@H]1CCc2ccc(C(=O)N(C)C3CCN(c4ccnc(N(C)C)c4)CC3)cc21 [Example H-119, (3R)-N-[1-(2-Dimethylamino-pyridin-4-yl)-pipendin-4-yl]-3-[isopropyl-(3-methyl-butanoyl)-amino]-N-methyl-2,3-dihydro-1H-indene-5-carboxylic acid amide]
98%	78%	CC(C)CC(=O)N(C(C)C)[C@@H]1CCc2ccc(C(=O)N(C)C3CCN(c4ccnc(N(C)C)n4)CC3)cc21 [Example H-120, (3R)-N-[1-(2-Dimethylamino-pyrimidin-4-yl)-pipendin-4-yl]-3-[isopropyl-(3-methyl-butanoyl)-amino]-N-methyl-2,3-dihydro-1H-indene-5-carboxylic acid amide]
100%	103%	Cc1nccc(N2CCC(N(C)C(=O)c3ccc4c(c3)[C@H](NC(=O)c3ccccc3Cl)CC4)CC2)n1 [Example H-122, (3R)-3-[(2-Chloro-benzoyl)amino]-N-methyl-N-[1-(2-methyl-pyrimidin-4-yl)-piperidin-4-yl]-2,3-dihydro-1H-indene-5-carboxylic acid amide]
